In patent US20110236504A1, “VERSATILE DISINFECTANT” (priority 2008, published 2011):
Read-outs that look alike come from different tables or passages of the source.

How the values were obtained:
S. aureus 209P [1] = test: 100% death time on contact with solution; type: cell-based
Excerpt: Examples of the effect are shown below.

E. coli O-157 [2] = test: Metal ion or food preservative added to growth medium, viable count; type: cell-based; settings: metal ion in growth medium
Protocol: (§1) To a standard medium for counting viable bacteria described below, each metal ion with varied concentration was added. […] Then, the number of viable bacteria was counted with time in a common procedure.
(§2) Sample bacteria: S. aureus 209P as a representative of Gram-positive bacteria • E. coli 0-157 as a representative of Gram-negative bacteria
(§3) Standard medium for counting viable bacteria: yeast extract 2.5 g, peptone 5 g, glucose 1 g, agar 15 g, pH 7.2

S. aureus 209P [3] = test: as above; type: cell-based; settings: metal ion in growth medium
Protocol: as §1, §2, §3

E. coli O-157 [4] = test: 100% death time on contact with solution
[5] = test system: spores of Clostridium species; test: Spore decay time and decay rate in dried soil, anaerobic culture; type: cell-based; settings: for Spore decay rate, Spores of Clostridium species: 1 g dried soil in 10 ml, anaerobic culture
Protocol: (§4) Sands in a sandbox in a park and riverside soil were collected and mixed. The mixture was dried with heated air at 80 to 90° C. for 6 hours. Then, 1 g of the dried mixture was added into water and immediately filtered with a filter. A part of the filtrate was applied onto a glass slide, and spores were stained in a common procedure. The number of stained spores was counted and the number of spores contained in 1 g of soil was determined. Simultaneously, the spores were aerobically (Bacillus species proliferated) and anaerobically (Clostridium species proliferated) cultured, and each ratio was determined.
(§5) Then, into 10 ml of the sample disinfectant, 1 g of the dried soil was added. Some of the mixture was collected with time, and cultured aerobically and anaerobically. The number of growing colonies was counted to determine the decay rate of the spores.

[6] = test system: spores of Bacillus species; test: Spore decay time and decay rate in dried soil, aerobic culture; type: cell-based; settings: for Spore decay rate, Spores of Bacillus species: 1 g dried soil in 10 ml, aerobic culture
Protocol: as §4, §5

[7] = test system: pus mainly including antibiotic resistant MRSA; settings: Pus (MRSA) 4 × 10^9/g
[8] = test system: pus mainly including antibiotic resistant Pseudomonas aeruginosa (MDRP); settings: Pus (MDRP) 5 × 10^9/g
[9] = test system: intestinal bacteria in feces; test: Sterilization effect on specimen: feces; settings: Feces 1.5 × 10^11/g
[10] = test system: viable bacteria in sputum; test: Sterilization effect on specimen: sputum; settings: Sputum 2 × 10^9/g
[11] = Cu^2+ 50 ppm + L-ascorbic acid 100 ppm
[12] = Cu^2+ 50 ppm + L-ascorbic acid 100 ppm + potassium sorbate 50 ppm
[13] = Cu^2+ 50 ppm + potassium sorbate 50 ppm
[14] = Cu^2+ 50 ppm + sodium lauryl sulfate 50 ppm
[15] = Cu^2+ 50 ppm + sodium lauryl sulfate 50 ppm + L-ascorbic acid 100 ppm
[16] = Cu^2+ 50 ppm + sodium lauryl sulfate 50 ppm + L-ascorbic acid 100 ppm + potassium sorbate 50 ppm

SMILES: O.O.O.O.O.O=S(=O)([O-])[O-].[Cu+2] [Cu^2+, CuSO4•5H2O]
- 100% death time (S. aureus 209P [1]; [11]): 60 min
- 100% death time (S. aureus 209P [1]; [12]): 50 min
- 100% death time (S. aureus 209P [1]; [13]): 75 min
- 100% death time (S. aureus 209P [1]; [14]): 1.5 min
- 100% death time (S. aureus 209P [1]; [15]): 1 min
- 100% death time (S. aureus 209P [1]; [16]): 0.75 min
- 100% death time (S. aureus 209P [1]; Cu^2+ ion 50 ppm alone): 90 min
- (a) Antiproliferative activity, concentration (E. coli O-157 [2]): 5~30 ppm
- (b) Bacteriostatic activity, concentration (E. coli O-157 [2]): 25~120 ppm
- (c) Bactericidal activity, concentration (E. coli O-157 [2]): 100 ppm>
- Acceleration of growth, concentration (E. coli O-157 [2]): 5 ppm<
- (a) Antiproliferative activity, concentration (S. aureus 209P [3]): 10~50 ppm
- (b) Bacteriostatic activity, concentration (S. aureus 209P [3]): 40~150 ppm
- Acceleration of growth, concentration (S. aureus 209P [3]): 5 ppm<
- 100% death time (E. coli O-157 [4]; [11]): 60 min
- 100% death time (E. coli O-157 [4]; [12]): 45 min
- 100% death time (E. coli O-157 [4]; [13]): 70 min
- 100% death time (E. coli O-157 [4]; [14]): 1 min
- 100% death time (E. coli O-157 [4]; [15]): 1 min
- 100% death time (E. coli O-157 [4]; [16]): 0.5 min
- 100% death time (E. coli O-157 [4]; Cu^2+ ion 50 ppm alone): 90 min

SMILES: OCl [Sodium hypochlorite, sodium hypochlorite]
- Spore decay rate, Spores of Clostridium species ([5]; 1 min contact): 0%
- Spore decay rate, Spores of Clostridium species ([5]; 5 min contact): 5%
- Spore decay rate, Spores of Clostridium species ([5]; 10 min contact): 20%
- Spore decay rate, Spores of Clostridium species ([5]; 30 min contact): 30%
- Spore decay rate, Spores of Clostridium species ([5]; 60 min contact): 100%
- spores decayed ([5]; 60 minutes contact): 100%
- Spore decay rate, Spores of Clostridium species ([5]; 120 min contact): 100%
- Spore decay rate, Spores of Bacillus species ([6]; 1 min contact): 0%
- Spore decay rate, Spores of Bacillus species ([6]; 5 min contact): 0%
- Spore decay rate, Spores of Bacillus species ([6]; 10 min contact): 10%
- Spore decay rate, Spores of Bacillus species ([6]; 30 min contact): 30%
- Spore decay rate, Spores of Bacillus species ([6]; 60 min contact): 100%
- spores decayed ([6]; 60 minutes contact): 100%
- Spore decay rate, Spores of Bacillus species ([6]; 120 min contact): 100%
- The number of viable bacteria in specimen ([7]; 5 min after addition): 30000 g⁻¹
- The number of viable bacteria in specimen ([7]; 15 min after addition): 500 g⁻¹
- The number of viable bacteria in specimen ([7]; 30 min after addition): 100 g⁻¹
- The number of viable bacteria in specimen ([7]; 60 min after addition): 0 g⁻¹
- The number of viable bacteria in specimen ([8]; 5 min after addition): 2000 g⁻¹
- The number of viable bacteria in specimen ([8]; 15 min after addition): 1000 g⁻¹
- The number of viable bacteria in specimen ([8]; 30 min after addition): 200 g⁻¹
- The number of viable bacteria in specimen ([8]; 60 min after addition): 100 g⁻¹
- The number of viable bacteria in specimen ([9]; 5 min after addition): 1e+08 g⁻¹
- The number of viable bacteria in specimen ([9]; 15 min after addition): 8e+06 g⁻¹
- The number of viable bacteria in specimen ([9]; 30 min after addition): 8e+06 g⁻¹
- The number of viable bacteria in specimen ([9]; 60 min after addition): 1e+07 g⁻¹
- The number of viable bacteria in specimen ([9]; 60 min after addition, listed as hypochlorite): 1e+07 g⁻¹
- The number of viable bacteria in specimen ([10]; 5 min after addition): 20000 g⁻¹
- The number of viable bacteria in specimen ([10]; 15 min after addition): 10000 g⁻¹
- The number of viable bacteria in specimen ([10]; 30 min after addition): 10000 g⁻¹
- The number of viable bacteria in specimen ([10]; 60 min after addition): 5000 g⁻¹
- The number of viable bacteria in specimen ([10]; 60 min after addition, listed as sodium hypochlorite): 5000 g⁻¹
